Legend:
Mus musculus [1] = assay: Prodrug conversion in C57B1/6 mouse assessed as 4-[4-((Thiiran-2-yl)methylsulphonyl)phenoxy]benzamine level in plasma at […], iv administered as single bolus dose after 22 mins by reversed-phase HPLC/UV analysis; assay type: ADME, organism-based; settings: in vivo
Mus musculus [2] = assay: Prodrug conversion in C57B1/6 mouse assessed as N-(4-(4-(thiiran-2-ylmethylsulfonyl)phenoxy)phenyl)acetamide level in plasma at […], iv administered as single bolus dose after 42 mins by reversed-phase HPLC/UV analysis; assay type: ADME, organism-based; settings: in vivo, 0.7 h
Mus musculus [3] = assay: AUC (0 to infinity) in C57B1/6 mouse plasma assessed as N-(4-(4-(thiiran-2-ylmethylsulfonyl)phenoxy)phenyl)acetamide level at […], iv administered as single bolus dose; assay type: ADME, organism-based; settings: in vivo, BLD = below limit of detection
Mus musculus [4] = assay: Prodrug conversion in C57B1/6 mouse assessed as 4-[4-((Thiiran-2-yl)methylsulphonyl)phenoxy]benzamine level in plasma at […], iv administered as single bolus dose after 2 to 3 mins by reversed-phase HPLC/UV analysis; assay type: ADME, organism-based; settings: in vivo
Mus musculus [5] = assay: Distribution half life in C57B1/6 mouse plasma assessed as 4-[4-((Thiiran-2-yl)methylsulphonyl)phenoxy]benzamine level at […], iv administered as single dose; assay type: ADME, organism-based; settings: in vivo
Mus musculus [6] = assay: Prodrug conversion in C57B1/6 mouse plasma assessed as parent compound level at […], iv administered as single bolus dose after 120 to 123 mins by reversed-phase LC/MS analysis; assay type: ADME, organism-based; settings: in vivo, read-out: Drug metabolism
Mus musculus [7] = assay: Prodrug conversion in C57B1/6 mouse assessed as 4-[4-((Thiiran-2-yl)methylsulphonyl)phenoxy]benzamine level in plasma at […], iv administered as single bolus dose after 120 to 123 mins by reversed-phase HPLC/UV analysis; assay type: ADME, organism-based; settings: in vivo
Mus musculus [8] = assay: Prodrug conversion in C57B1/6 mouse plasma assessed as parent compound level at […], iv administered as single bolus dose after 4 to 5 mins by reversed-phase LC/MS analysis; assay type: ADME, organism-based; settings: in vivo, read-out: Drug metabolism
Mus musculus [9] = assay: Prodrug conversion in C57B1/6 mouse assessed as N-(4-(4-(thiiran-2-ylmethylsulfonyl)phenoxy)phenyl)acetamide level in plasma at […], iv administered as single bolus dose after 2 to 3 mins by reversed-phase LC/MS analysis; settings: in vivo

Cl.N=C(N)NCCC[C@H](N)C(=O)Nc1ccc(Oc2ccc(S(=O)(=O)CC3CS3)cc2)cc1 (some centres undefined)
Drug metabolism (Mus musculus [1]): 0.787 µM
Drug metabolism (Mus musculus [2]): 0.0358 µM
AUC (Mus musculus [3]): BLD
Drug metabolism (Mus musculus [4]): 12.3 µM
alphat1/2 (Mus musculus [5]): 2.9 min
concentration (Mus musculus [6]): 0.0171 µM
Drug metabolism (Mus musculus [7]): 0.0248 µM
concentration (Mus musculus [8]): 7.32 µM
Drug metabolism (Mus musculus [9]): 0.0354 µM
